Reference: PubChem BioAssay AID1963836 (Molecular Pharmacology Branch, DTP, NCI, 2024)

System: 857933-349-R-J2-PDC complex spheroid viability
Experiment: Anticancer human tumor 857933-349-R-J2-PDC patient-derived colon adenocarcinoma cell line growth inhibition [POLQ]
Conditions: for IC50: curve of first compound; for viability, T/C: stronger effect = lower value; active = viability on the fitted dose curve at most 10% of control; inactive = the rest
Procedure: Multicellular complex tumor spheroid response to Polymerase (POL) inhibitors (novobiocin, ART-558, RP6685) in combination with a variety of drugs and investigational agents in selected tumor cell lines
The POL inhibitors (novobiocin, ART-558, and RP6685) were evaluated both individually and in combination with standard of care and investigational anticancer small molecules within a complex spheroid model of solid tumors. . Complex spheroids include a stromal component modeled by human endothelial cells (HUVEC) and fibroblasts modeled by human mesenchymal stem cells (MSCs). The concentration ranges selected for each drug and investigational agent were based upon clinically achievable concentrations if the clinical Cmax of the agent was known.
Compounds. The drugs and investigational agents: novobiocin (NSC847541), ART-558 (NSC835418), RP-6685 (NSC848927), peposertib (NSC802822), ceralasertib (NSC780249), elimusertib (NSC800525), camonsertib (NSC841442), AZD-1390 (NSC803789), olaparib (NSC753686), talazoparib (NSC767125), rucaparib (NSC756644), sotorasib (NSC818433), MRTX-1133 (NSC836407), SN-38 (NSC673596), topotecan (NSC609699), epotoside (NSC141540), doxorubicin (NSC123127), gemcitabine (NSC613327), 5-fluorouracil (NSC19893), paclitaxel (NSC125973), vemurafenib (NSC761431), MSA-2 (NSC828583), SN-011 (NSC837082), adavosertib (NSC754352), prexasertib (NSC758257), carboplatin (NSC241240) and oxaliplatin (NSC266046), were obtained from the National Cancer Institute (NCI) Developmental Therapeutics Program Chemical Repository (21). The FDA-approved anticancer drug set is available from the Developmental Therapeutics Program at https://dtp.cancer.gov/organization/dscb/obtaining/. […] The stock solutions were prepared in dimethyl sulfoxide (DMSO, Sigma-Aldrich, St. Louis, MO, cat. D2650), except for the platinum compounds which were prepared in saline (Quality Biological, Gaithersburg, MD, cat. 114-055-101), at 800-fold the tested concentration and stored at -70 degrees C prior to their use. All drugs and investigational agents were tested over a range starting from a high concentration at or near the clinical Cmax and decreasing in half-log increments. If the clinical Cmax for an agent had not been determined, the highest concentration tested was 10 microM, except for SN-38, which was tested at a high concentration of 1 microM.
Cell Culture. All cells were maintained in an incubator at 37 degrees C and 5% CO2 with 95% humidity. The PDC lines were cultured according to standard operating procedures established by the NCI PDMR (https://pdmr.cancer.gov). Table 3 of the manuscript, lists the cell lines along with the number of the three cell types plated to form the mct-spheroids and media for tumor cell growth. After thawing, all PDC lines, except 997537-175-T-J1-PDC and 415267-285-R-J2-PDC, were cultured in Matrigel-coated flasks prepared with a working solution of 1X Ham's F-12 nutrient mix, without supplementation (Thermo Fisher Scientific, cat. 11765054), 100 U/mL penicillin-streptomycin (Thermo Fisher Scientific, cat. 15140122), and 2.5% Matrigel (Corning Inc., Corning, NY, cat. 354248) for the first three passages. The two PDC lines 997537-175-T-J1-PDC and 415267-285-R-J2-PDC were cultured on uncoated flasks. The 857933-349-R-J2-PDC line was cultured in 6C/Colon 1B media containing advanced DMEM/F-12 (Thermo Fisher Scientific, cat. 12634028), 10 mM HEPES (Thermo Fisher Scientific, cat. 15630080), 1X GlutaMAX supplement (Thermo Fisher Scientific, cat. 35050061), 0.1 mg/mL primocin (InvivoGen, San Diego, CA, cat. ant-pm-2), 10% defined fetal bovine serum, heat inactivated (HyClone Laboratories Inc., Logan, UT, cat. SH30070.03HI), 50% L-WRN conditioned media (ATCC, cat. CRL-3276), 1.25 mM N-Acetyl-L-cysteine (Sigma-Aldrich, cat. A9165), 10 mM nicotinamide (Sigma-Aldrich, cat. N0636), 1X B-27 supplement (Thermo Fisher Scientific, cat. 17504044), 1X N-2 supplement (Thermo Fisher Scientific, cat. […]
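Note: spheroids exposed to compounds for seven days before readout.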

CC(=O)O[C@H]1C(=O)[C@@]2(C)[C@H]([C@H](OC(=O)c3ccccc3)[C@]3(O)C[C@H](OC(=O)[C@H](O)[C@@H](NC(=O)c4ccccc4)c4ccccc4)C(C)=C1C3(C)C)[C@]1(OC(C)=O)CO[C@@H]1C[C@@H]2O + COC1C(OC(N)=O)C(O)C(Oc2ccc3c(O)c(NC(=O)c4ccc(O)c(CC=C(C)C)c4)c(=O)oc3c2C)OC1(C)C
9.76 nM: IC50 (second compound 3.16 µM)
11.3 nM: IC50 (second compound 10 µM)
14.6 nM: IC50 (second compound 0.1 µM)
13.2 nM: IC50 (second compound 0.316 µM)
12.2 nM: IC50 (second compound 1 µM)
inactive: viability, T/C (second compound 0.0316 µM, first compound 0.00949 µM) 48.7% | viability, T/C (second compound 0.0316 µM, first compound 0.03 µM) 25% | viability, T/C (second compound 0.0316 µM, first compound 0.0949 µM) 19.1% | viability, T/C (second compound 0.0316 µM, first compound 0.3 µM) 17.6% | viability, T/C (second compound 0.0316 µM, first compound 0.949 µM) 15.8% | viability, T/C (second compound 0.0316 µM, first compound 3 µM) 20.8% | viability, T/C (second compound 0.1 µM, first compound 0.00949 µM) 61% | viability, T/C (second compound 0.1 µM, first compound 0.03 µM) 31.7% | viability, T/C (second compound 0.1 µM, first compound 0.0949 µM) 15.2% | viability, T/C (second compound 0.1 µM, first compound 0.3 µM) 15.4% | viability, T/C (second compound 0.1 µM, first compound 0.949 µM) 15.1% | viability, T/C (second compound 0.1 µM, first compound 3 µM) 16.5% | viability, T/C (second compound 0.316 µM, first compound 0.00949 µM) 57.8% | viability, T/C (second compound 0.316 µM, first compound 0.03 µM) 30.2% | viability, T/C (second compound 0.316 µM, first compound 0.0949 µM) 15.7% | viability, T/C (second compound 0.316 µM, first compound 0.3 µM) 19.7% | viability, T/C (second compound 0.316 µM, first compound 0.949 µM) 13.8% | viability, T/C (second compound 0.316 µM, first compound 3 µM) 25.4% | viability, T/C (second compound 1 µM, first compound 0.00949 µM) 58.7% | viability, T/C (second compound 1 µM, first compound 0.03 µM) 19.7% | viability, T/C (second compound 1 µM, first compound 0.0949 µM) 12.8% | viability, T/C (second compound 1 µM, first compound 0.3 µM) 20.5% | viability, T/C (second compound 1 µM, first compound 0.949 µM) 16.1% | viability, T/C (second compound 1 µM, first compound 3 µM) 20.3% | viability, T/C (second compound 3.16 µM, first compound 0.00949 µM) 50.7% | viability, T/C (second compound 3.16 µM, first compound 0.03 µM) 21.3% | viability, T/C (second compound 3.16 µM, first compound 0.0949 µM) 15.2% | viability, T/C (second compound 3.16 µM, first compound 0.3 µM) 16.4% | viability, T/C (second compound 3.16 µM, first compound 0.949 µM) 16.4% | viability, T/C (second compound 3.16 µM, first compound 3 µM) 19.3% | viability, T/C (second compound 10 µM, first compound 0.00949 µM) 54.5% | viability, T/C (second compound 10 µM, first compound 0.03 µM) 25.5% | viability, T/C (second compound 10 µM, first compound 0.0949 µM) 18.3% | viability, T/C (second compound 10 µM, first compound 0.3 µM) 17.4% | viability, T/C (second compound 10 µM, first compound 0.949 µM) 15.7% | viability, T/C (second compound 10 µM, first compound 3 µM) 20.7%
< 9.49 nM: IC50 (second compound 0.0316 µM)

CC[C@@]1(O)C(=O)OCc2c1cc1n(c2=O)Cc2cc3c(CN(C)C)c(O)ccc3nc2-1 + COC1C(OC(N)=O)C(O)C(Oc2ccc3c(O)c(NC(=O)c4ccc(O)c(CC=C(C)C)c4)c(=O)oc3c2C)OC1(C)C
80.7 nM: IC50 (second compound 0.1 µM)
> 100 nM: IC50 (second compound 0.0316 µM) | IC50 (second compound 0.316 µM) | IC50 (second compound 1 µM) | IC50 (second compound 3.16 µM) | IC50 (second compound 10 µM)
inactive: viability, T/C (second compound 0.0316 µM, first compound 0.000316 µM) 117% | viability, T/C (second compound 0.0316 µM, first compound 0.001 µM) 107% | viability, T/C (second compound 0.0316 µM, first compound 0.00316 µM) 97.6% | viability, T/C (second compound 0.0316 µM, first compound 0.01 µM) 84.8% | viability, T/C (second compound 0.0316 µM, first compound 0.0316 µM) 83% | viability, T/C (second compound 0.0316 µM, first compound 0.1 µM) 50.7% | viability, T/C (second compound 0.1 µM, first compound 0.000316 µM) 105% | viability, T/C (second compound 0.1 µM, first compound 0.001 µM) 93.3% | viability, T/C (second compound 0.1 µM, first compound 0.00316 µM) 88.5% | viability, T/C (second compound 0.1 µM, first compound 0.01 µM) 80% | viability, T/C (second compound 0.1 µM, first compound 0.0316 µM) 71% | viability, T/C (second compound 0.1 µM, first compound 0.1 µM) 44.2% | viability, T/C (second compound 0.316 µM, first compound 0.000316 µM) 120% | viability, T/C (second compound 0.316 µM, first compound 0.001 µM) 86% | viability, T/C (second compound 0.316 µM, first compound 0.00316 µM) 94.4% | viability, T/C (second compound 0.316 µM, first compound 0.01 µM) 76.1% | viability, T/C (second compound 0.316 µM, first compound 0.0316 µM) 88.5% | viability, T/C (second compound 0.316 µM, first compound 0.1 µM) 50.4% | viability, T/C (second compound 1 µM, first compound 0.000316 µM) 138% | viability, T/C (second compound 1 µM, first compound 0.001 µM) 83.5% | viability, T/C (second compound 1 µM, first compound 0.00316 µM) 86% | viability, T/C (second compound 1 µM, first compound 0.01 µM) 72% | viability, T/C (second compound 1 µM, first compound 0.0316 µM) 87.1% | viability, T/C (second compound 1 µM, first compound 0.1 µM) 49.7% | viability, T/C (second compound 3.16 µM, first compound 0.000316 µM) 128% | viability, T/C (second compound 3.16 µM, first compound 0.001 µM) 102% | viability, T/C (second compound 3.16 µM, first compound 0.00316 µM) 79.4% | viability, T/C (second compound 3.16 µM, first compound 0.01 µM) 90.7% | viability, T/C (second compound 3.16 µM, first compound 0.0316 µM) 65.9% | viability, T/C (second compound 3.16 µM, first compound 0.1 µM) 44.3% | viability, T/C (second compound 10 µM, first compound 0.000316 µM) 136% | viability, T/C (second compound 10 µM, first compound 0.001 µM) 123% | viability, T/C (second compound 10 µM, first compound 0.00316 µM) 69.3% | viability, T/C (second compound 10 µM, first compound 0.01 µM) 96.3% | viability, T/C (second compound 10 µM, first compound 0.0316 µM) 81.6% | viability, T/C (second compound 10 µM, first compound 0.1 µM) 45.4%
